We go through 24 molecules from patent US20180148418A1, “AMIDO-SUBSTITUTED CYCLOHEXANE DERIVATIVES” (Bayer Pharma Aktiengesellschaft, priority 2015, published 2018).

Counter-ions that a name gives are not always drawn.

Broadly, the IC50 is the point on the concentration scale where inhibition reaches its midpoint.

The target in this assay is T1, TNKS1 (Homo sapiens, UniProt O95271).
T1 construct: purchased BPS Bioscience, San Diego, USA 80579 (TNKS1 Histone Ribosylation Assay Kit)
T1 sequence (O95271 1-1327): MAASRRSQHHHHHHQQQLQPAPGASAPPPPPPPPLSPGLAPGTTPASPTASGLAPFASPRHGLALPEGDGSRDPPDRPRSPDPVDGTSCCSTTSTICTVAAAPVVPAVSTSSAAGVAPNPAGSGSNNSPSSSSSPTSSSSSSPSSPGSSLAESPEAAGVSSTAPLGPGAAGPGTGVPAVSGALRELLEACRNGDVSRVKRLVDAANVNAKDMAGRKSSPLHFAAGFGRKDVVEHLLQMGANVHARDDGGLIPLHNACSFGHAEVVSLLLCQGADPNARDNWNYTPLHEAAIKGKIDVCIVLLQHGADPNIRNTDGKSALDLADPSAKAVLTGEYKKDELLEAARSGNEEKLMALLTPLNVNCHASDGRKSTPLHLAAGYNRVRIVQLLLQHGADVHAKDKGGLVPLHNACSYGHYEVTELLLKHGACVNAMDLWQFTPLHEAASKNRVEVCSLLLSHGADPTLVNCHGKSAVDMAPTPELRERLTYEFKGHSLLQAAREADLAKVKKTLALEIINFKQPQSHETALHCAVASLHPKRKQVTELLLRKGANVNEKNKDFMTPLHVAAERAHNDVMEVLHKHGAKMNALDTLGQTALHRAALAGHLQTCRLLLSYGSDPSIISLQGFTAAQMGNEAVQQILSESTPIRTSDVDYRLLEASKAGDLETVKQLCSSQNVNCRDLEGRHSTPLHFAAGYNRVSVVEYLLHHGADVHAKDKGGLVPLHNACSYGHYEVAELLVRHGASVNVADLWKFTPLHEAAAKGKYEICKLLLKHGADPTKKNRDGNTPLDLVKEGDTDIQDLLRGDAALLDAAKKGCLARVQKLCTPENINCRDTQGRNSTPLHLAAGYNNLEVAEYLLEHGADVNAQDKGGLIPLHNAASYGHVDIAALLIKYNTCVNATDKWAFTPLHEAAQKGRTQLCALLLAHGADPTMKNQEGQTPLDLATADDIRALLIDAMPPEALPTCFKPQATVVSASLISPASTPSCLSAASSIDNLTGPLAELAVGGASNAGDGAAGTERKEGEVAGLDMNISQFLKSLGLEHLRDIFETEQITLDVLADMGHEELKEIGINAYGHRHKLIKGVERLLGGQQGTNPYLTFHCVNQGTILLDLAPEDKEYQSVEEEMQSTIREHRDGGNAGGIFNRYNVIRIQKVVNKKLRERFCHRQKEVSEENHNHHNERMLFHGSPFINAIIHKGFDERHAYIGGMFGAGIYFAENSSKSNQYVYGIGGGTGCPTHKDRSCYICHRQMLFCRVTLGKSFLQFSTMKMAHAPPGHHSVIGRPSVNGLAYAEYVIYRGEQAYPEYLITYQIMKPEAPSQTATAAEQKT
The assay can be described thus: TNKS1 Assay B (auto-parsylation, [3H]-NAD+ SPA). Format: biochemical. As to conditions: 6 nM TNKS1, auto-parsylation, over night at room temperature.

In turn, `CNC(=O)c1[nH]cnc1C(=O)N[C@H]1CC[C@@]2(CCN(c3ccc(F)cc3)C2=O)CC1` [Example 212, N^4-[(trans)-2-(4-fluorophenyl)-1-oxo-2-azaspiro[4.5]dec-8-yl]-N^5-methyl-1H-imidazole-4,5-dicarboxamide] returned an IC50 of 560 nM. Regarding `CCNC(=O)c1[nH]cnc1C(=O)N[C@H]1CC[C@@]2(CCN(c3ccc(F)cc3)C2=O)CC1` [Example 213, N^5-ethyl-N^4-[(trans)-2-(4-fluorophenyl)-1-oxo-2-azaspiro[4.5]dec-8-yl]-1H-imidazole-4,5-dicarboxamide], the 50% inhibitory concentration (IC50) amounted to 340 nM. `O=C(N[C@H]1CC[C@@]2(CCN(c3ccc(F)cc3Cl)C2=O)CC1)c1cnn2cc(CCO)cnc12` [Example 214, N-[(trans)-2-(2-chloro-4-fluorophenyl)-1-oxo-2-azaspiro[4.5]dec-8-yl]-6-(2-hydroxyethyl)pyrazolo[1,5-a]pyrimidine-3-carboxamide] came in with a 50% inhibitory concentration (IC50) of 12 nM. `CNc1ccn2ncc(C(=O)N[C@H]3CC[C@@]4(CCN(c5ccc(F)cc5Cl)C4=O)CC3)c2n1` [Example 215, N-[(trans)-2-(2-chloro-4-fluorophenyl)-1-oxo-2-azaspiro[4.5]dec-8-yl]-5-(methylamino)pyrazolo[1,5-a]pyrimidine-3-carboxamide] yielded an IC50 of 7.5 nM. In turn, `Cc1nn2cccnc2c1C(=O)N[C@H]1CC[C@@]2(CCN(c3ccc(F)cc3Cl)C2=O)CC1` [Example 216, N-[(trans)-2-(2-chloro-4-fluorophenyl)-1-oxo-2-azaspiro[4.5]dec-8-yl]-2-methylpyrazolo[1,5-a]pyrimidine-3-carboxamide] yielded a 50% inhibitory concentration (IC50) of 570 nM. On to `CN(C)c1ccn2ncc(C(=O)N[C@H]3CC[C@@]4(CCN(c5ccc(F)cc5Cl)C4=O)CC3)c2n1` [Example 217, N-[(trans)-2-(2-chloro-4-fluorophenyl)-1-oxo-2-azaspiro[4.5]dec-8-yl]-5-(dimethylamino)pyrazolo[1,5-a]pyrimidine-3-carboxamide], for which the IC50 turned out to be 6.1 nM. Take `COc1ccn2ncc(C(=O)N[C@H]3CC[C@@]4(CCN(c5ccc(F)cc5Cl)C4=O)CC3)c2n1` [Example 218, N-[(trans)-2-(2-chloro-4-fluorophenyl)-1-oxo-2-azaspiro[4.5]dec-8-yl]-5-methoxypyrazolo[1,5-a]pyrimidine-3-carboxamide]: the IC50 worked out at 14 nM. For `Cc1ccn2ncc(C(=O)N[C@H]3CC[C@@]4(CCN(c5ccc(F)cc5Cl)C4=O)CC3)c2n1` [Example 221, N-[(trans)-2-(2-chloro-4-fluorophenyl)-1-oxo-2-azaspiro[4.5]dec-8-yl]-5-methylpyrazolo[1,5-a]pyrimidine-3-carboxamide] the value was 11 nM; for `Cc1ccnc2c(C(=O)N[C@H]3CC[C@@]4(CCN(c5ccc(F)cc5Cl)C4=O)CC3)cnn12` [Example 222, N-[(trans)-2-(2-chloro-4-fluorophenyl)-1-oxo-2-azaspiro[4.5]dec-8-yl]-7-methylpyrazolo[1,5-a]pyrimidine-3-carboxamide], 13 nM. In the case of `Cc1cc(C(F)F)n2ncc(C(=O)N[C@H]3CC[C@@]4(CCN(c5ccc(F)cc5Cl)C4=O)CC3)c2n1` [Example 224, N-[(trans)-2-(2-chloro-4-fluorophenyl)-1-oxo-2-azaspiro[4.5]dec-8-yl]-7-(difluoromethyl)-5-methylpyrazolo[1,5-a]pyrimidine-3-carboxamide], 14 nM corresponded to half-maximal inhibition (IC50).

Consider `CC(C)(C)OC(=O)N1CCN(c2ccn3ncc(C(=O)N[C@H]4CC[C@@]5(CCN(c6ccc(F)cc6Cl)C5=O)CC4)c3n2)CC1` [Example 225, tert-butyl 4-(3-{[(trans)-2-(2-chloro-4-fluorophenyl)-1-oxo-2-azaspiro[4.5]dec-8-yl]carbamoyl}pyrazolo[1,5-a]pyrimidin-5-yl)piperazine-1-carboxylate], for which the IC50 was found to be 6 nM. `O=C(N[C@H]1CC[C@@]2(CCN(c3ccc(F)cc3Cl)C2=O)CC1)c1cnn2ccc(N3CCNCC3)nc12` [Example 226, N-[(trans)-2-(2-chloro-4-fluorophenyl)-1-oxo-2-azaspiro[4.5]dec-8-yl]-5-(piperazin-1-yl)pyrazolo[1,5-a]pyrimidine-3-carboxamide hydrochloric acid salt]: half-maximal inhibition (IC50) was put at 8.2 nM. For `O=C(N[C@H]1CC[C@@]2(CCN(c3ccc(F)cc3Cl)C2=O)CC1)c1cnn2ccc(N3CCCC3)nc12` [Example 232, N-[(trans)-2-(2-chloro-4-fluorophenyl)-1-oxo-2-azaspiro[4.5]dec-8-yl]-5-(pyrrolidin-1-yl)pyrazolo[1,5-a]pyrimidine-3-carboxamide] the value was 8.5 nM; for `O=C(N[C@H]1CC[C@@]2(CCN(c3ccc(F)cc3Cl)C2=O)CC1)c1cnn2c(C(F)(F)F)ccnc12` [Example 233, N-[(trans)-2-(2-chloro-4-fluorophenyl)-1-oxo-2-azaspiro[4.5]dec-8-yl]-7-(trifluoromethyl)pyrazolo[1,5-a]pyrimidine-3-carboxamide], 71 nM; for `O=C(N[C@H]1CC[C@@]2(CCN(c3ccccc3Cl)C2=O)CC1)c1cnn2cccnc12` [Example 256, N-[(trans)-2-(2-chlorophenyl)-1-oxo-2-azaspiro[4.5]dec-8-yl]pyrazolo[1,5-a]pyrimidine-3-carboxamide], 12 nM. With `Cc1cc(C)n2ncc(C(=O)N[C@H]3CC[C@@]4(CCN(c5ccccc5Cl)C4=O)CC3)c2n1` [Example 257, N-[(trans)-2-(2-chlorophenyl)-1-oxo-2-azaspiro[4.5]dec-8-yl]-5,7-dimethylpyrazolo[1,5-a]pyrimidine-3-carboxamide], inhibition was half-maximal at 10 nM (IC50). In turn, `CCNC(=O)c1nc[nH]c1C(=O)N[C@H]1CC[C@@]2(CCN(c3ccccc3Cl)C2=O)CC1` [Example 258, N^5-[(trans)-2-(2-chlorophenyl)-1-oxo-2-azaspiro[4.5]dec-8-yl]-N^4-ethyl-1H-imidazole-4,5-dicarboxamide] gave a half-maximal inhibitory concentration (IC50) of 13 nM. For `COCCNC(=O)c1nc[nH]c1C(=O)N[C@H]1CC[C@@]2(CCN(c3ccccc3Cl)C2=O)CC1` [Example 259, N^5-[(trans)-2-(2-chlorophenyl)-1-oxo-2-azaspiro[4.5]dec-8-yl]-N^4-(2-methoxyethyl)-1H-imidazole-4,5-dicarboxamide] the value was 12 nM; for `CC1CCN(CCNC(=O)c2nc[nH]c2C(=O)N[C@H]2CC[C@@]3(CCN(c4ccccc4Cl)C3=O)CC2)CC1` [Example 260, N^5-[(trans)-2-(2-chlorophenyl)-1-oxo-2-azaspiro[4.5]dec-8-yl]-N^4-[2-(4-methylpiperidin-1-yl)ethyl]-1H-imidazole-4,5-dicarboxamide], 7.4 nM; for `CNC(=O)c1nc[nH]c1C(=O)N[C@H]1CC[C@@]2(CCN(c3ccccc3Cl)C2=O)CC1` [Example 264, N^5-[(trans)-2-(2-chlorophenyl)-1-oxo-2-azaspiro[4.5]dec-8-yl]-N^4-methyl-1H-imidazole-4,5-dicarboxamide], 20 nM. For `Cc1cc(N2CC[C@]3(CC[C@@H](NC(=O)c4cnc5cccnn45)CC3)C2=O)c(Cl)cc1F` [Example 265, N-[(trans)-2-(2-chloro-4-fluoro-5-methylphenyl)-1-oxo-2-azaspiro[4.5]dec-8-yl]imidazo[1,2-b]pyridazine-3-carboxamide] the value was 6.4 nM; for `Cc1cc(C)n2ncc(C(=O)N[C@H]3CC[C@@]4(CCN(c5cc(C)c(F)cc5Cl)C4=O)CC3)c2n1` [Example 266, N-[(trans)-2-(2-chloro-4-fluoro-5-methylphenyl)-1-oxo-2-azaspiro[4.5]dec-8-yl]-5,7-dimethylpyrazolo[1,5-a]pyrimidine-3-carboxamide], 20 nM.

`Cc1cc(N2CC[C@]3(CC[C@@H](NC(=O)c4cnn5cccnc45)CC3)C2=O)c(Cl)cc1F` [Example 267, N-[(trans)-2-(2-chloro-4-fluoro-5-methylphenyl)-1-oxo-2-azaspiro[4.5]dec-8-yl]pyrazolo[1,5-a]pyrimidine-3-carboxamide] returned a half-inhibitory concentration (IC50) of 9.9 nM. Molecule `O=C(N[C@H]1CC[C@@]2(CCN(c3cccc(Cl)c3)C2=O)CC1)c1cnn2cccnc12` [Example 268, N-[(trans)-2-(3-chlorophenyl)-1-oxo-2-azaspiro[4.5]dec-8-yl]pyrazolo[1,5-a]pyrimidine-3-carboxamide] had an IC50 of 540 nM.
